Data published in US20240279239A1, “COMPOUNDS AND METHODS FOR MODULATING SPLICING” (REMIX THERAPEUTICS INC., priority 2020, published 2024).
Read-outs that look alike come from different tables or passages of the source.

Assays:
Assay type in all cases: cell-based
HTT [1] = test: RT-qPCR splicing assay for HTT mRNA isoforms (canonical junction CJ and alternative junction AJ); details: A673 or K562 cell line, 24 hours treatment
Procedure: (§1) Example 44: Exemplary splicing assay for monitoring expression levels of splice variants Compounds described herein were used to modulate RNA transcript abundance in cells. The expression of a target mRNA was measured by detecting the formation of an exon-exon junction in the canonical transcript (CJ). A compound mediated exon-inclusion event was detected by observing an increase in formation of a new junction with an alternative exon (AJ). Real-time qPCR assays were used to detect these splicing switches and interrogate the potency of various compounds towards different target genes. A high-throughput real time quantitative PCR (RT-qPCR) assay was developed to measure these two isoforms of the mRNA (CJ and AJ) for an exemplary gene, HTT, together with a control housekeeping gene, GAPDH or GUSB or PPIA, used for normalization. Briefly, the A673 or K562 cell line was treated with various compounds described herein (e.g., compounds of Formula (I)). After treatment, the levels of the HTT mRNA targets were determined from each sample of cell lysate by cDNA synthesis followed by qPCR.
(§2) The A673 cell line was cultured in DMEM with 10% FBS. Cells were diluted with full growth media and plated in a 96-well plate (15,000 cells in 100 µl media per well). The plate was incubated at 37° C. with 5% CO2 for 24 hours to allow cells to adhere. An 11-point 3-fold serial dilution of the compounds was made in DMSO then diluted in media in an intermediate plate. Compounds were transferred from the intermediate plate to the cell plate with the top dose at a final concentration of 10 uM in the well. Final DMSO concentration was kept at or below 0.25%. The cell plate was returned to the incubator at 37° C. with 5% CO2 for an additional 24 hours.
(§3) The K562 cell line was cultured in IMDM with 10% FBS. For K562, cells were diluted with full growth media and plated in either a 96-well plate (50,000 cells in 50 uL media per well) or a 384-well plate (8,000-40,000 cells in 45 uL media per well). An 11-point 3-fold serial dilution of the compounds were made in DMSO then diluted in media in an intermediate plate. Compound was transferred from the intermediate plate to the cell plate with the top dose at a final concentration of 10 uM in the well. Final DMSO concentration was kept at or below 0.25%. Final volume was 100 uL for 96-well plate and 50 uL for 384-well plate. The cell plate was then placed in an incubator at 37° C. with 5% CO2 for 24 hours.
(§4) The cells were then gently washed with 50 uL-100 uL cold PBS before proceeding to addition of lysis buffer. 30 uL-50 uL of room temperature lysis buffer with DNAse I (and optionally RNAsin) was added to each well. Cells were shaken/mixed thoroughly at room temperature for 5-10 minutes for lysis to take place and then 3 uL-5 uL of room temperature stop solution was added and wells were shaken/mixed again. After 2-5 minutes, the cell lysate plate was transferred to ice for RT-qPCR reaction setup. The lysates could also be frozen at ˜80° C. for later use.
(§5) In some cases, a direct lysis buffer was used. An appropriate volume of 3× lysis buffer (10 mM Tris, 150 mM NaCl, 1.5%-2.5% Igepal and 0.1-1 U/uL RNAsin, pH 7.4) was directly added to either K562 or A673 cells in media and mixed by pipetting 3 times. The plates were then incubated at room temperature with shaking/rocking for 20-50 minutes to allow for lysis to take place. After this time, the cell lysate plate was transferred to ice to set up for the RT-qPCR reactions. The lysates could also be frozen at −80° C. for later use.
(§6) To set up 10 uL RT-qPCR reactions, cell lysates were transferred to 384-well qPCR plates containing the master mix according to the table below. The plates were sealed, gently vortexed, and spun down before the run. The volumes were adjusted accordingly in some instances where the reaction was carried in 20 uL. The table below summarizes the components of the RT-qPCR reactions: […]

Target C = test: RT-qPCR canonical junction panel assay, Target C; details: gene panel, read-out: Target C IC50 (decrease in CJ mRNA levels)
Procedure: as §1, §2, §3, §4, §5, §6

HTT [2] = test: RT-qPCR canonical junction panel assay, HTT; details: gene panel, read-out: HTT IC50 (decrease in CJ mRNA levels)
Procedure: as §1, §2, §3, §4, §5, §6

SMN2 = test: RT-qPCR canonical junction panel assay, SMN2; details: gene panel, read-out: SMN2 IC50 (decrease in CJ mRNA levels)
Procedure: as §1, §2, §3, §4, §5, §6

[3] = decrease in CJ mRNA levels, read-out: HTT CJ AC50
[4] = increase in AJ mRNA, read-out: HTT AJ AC50

Row | Compound | AC50 (HTT [1]; [3]) [µM] | AC50 (HTT [1]; [4]) [µM] | IC50 (Target C) [µM] | IC50 (HTT [2]) [µM] | IC50 (SMN2) [µM]
1 | Cc1cc(-c2cc(=O)n3cc(N4CCN(C)CC4)sc3n2)cc2cn(C)nc12 [Compound 109, 7-(2,7-dimethyl-2H-indazol-5-yl)-2-(4-methylpiperazin-1-yl)-5H-thiazolo[3,2-α]pyrimidin-5-one] | > 10 | > 10 | > 10 | > 10 | > 10
2 | Cc1cc(-c2cc(=O)n3nc(N4CCN(C)CC4)sc3n2)cc2cn(C)nc12 [Compound 157] | > 10 | > 10 | > 10 | > 10 | > 10
3 | Cc1cn2cc(-c3cc(=O)n4nc(N5CCN(C)CC5)sc4n3)cc(F)c2n1 [Compound 159, 7-(8-fluoro-2-methylimidazo[1,2-α]pyridin-6-yl)-2-(4-methylpiperazin-1-yl)-5H-[1,3,4]thiadiazolo[3,2-α]pyrimidin-5-one] | 1 to 10 | 1 to 10 | 1 to 10 | 1 to 10 | 1 to 10
4 | CN1CCN(c2nc3ncn(-c4ccc5nn(C)cc5c4)c(=O)c3s2)CC1 [Compound 182, 6-(2-methyl-2H-indazol-5-yl)-2-(4-methylpiperazin-1-yl)thiazolo[4,5-d]pyrimidin-7(6H)-one] | 1 to 10 | 1 to 10 | – | 1 to 10 | 1 to 10
5 | Cc1cc(-c2cn3c(=O)cc(N4CCN(C)CC4)nc3s2)cc2cn(C)nc12 [Compound 183, 2-(2,7-dimethyl-2H-indazol-5-yl)-7-(4-methylpiperazin-1-yl)-5H-thiazolo[3,2-α]pyrimidin-5-one] | > 10 | > 10 | – | > 10 | 1 to 10
6 | Cc1cn2cc(-c3cn4c(=O)cc(N5CCN(C)CC5)nc4s3)cc(F)c2n1 [Compound 184] | > 10 | > 10 | – | > 10 | 1 to 10
7 | Cc1cn2nc(-c3cc(=O)n4cc(N(C)C5CC(C)(C)NC(C)(C)C5)sc4n3)cc(C)c2n1 [Compound 205, 7-(2,8-dimethylimidazo[1,2-b]pyridazin-6-yl)-2-(methyl(2,2,6,6-tetramethylpiperidin-4-yl)amino)-5H-thiazolo[3,2-α]pyrimidin-5-one] | 1 to 10 | 1 to 10 | 1 to 10 | 1 to 10 | 1 to 10
8 | Cc1cc(-c2nn3c(=O)cc(N4CCNCC4)nc3s2)cc2cn(C)nc12 [Compound 206, 2-(2,7-dimethyl-2H-indazol-5-yl)-7-(piperazin-1-yl)-5H-[1,3,4]thiadiazolo[3,2-α]pyrimidin-5-one] | 1 to 10 | 1 to 10 | 1 to 10 | 1 to 10 | 0.1 to 1
9 | Cc1cn2cc(-c3cc(=O)n4cc(N5CCNC6(CC6)C5)sc4n3)cc(F)c2n1 [Compound 207, 7-(8-fluoro-2-methylimidazo[1,2-α]pyridin-6-yl)-2-(4,7-diazaspiro[2.5]octan-7-yl)-5H-thiazolo[3,2-α]pyrimidin-5-one] | > 10 | > 10 | > 10 | > 10 | 0.1 to 1
10 | Cc1cn2cc(-c3cn4c(=O)cc(N5CCNC6(CC6)C5)nc4s3)cc(F)c2n1 [Compound 208, 2-(8-fluoro-2-methylimidazo[1,2-α]pyridin-6-yl)-7-(4,7-diazaspiro[2.5]octan-7-yl)-5H-thiazolo[3,2-α]pyrimidin-5-one] | 1 to 10 | 1 to 10 | 1 to 10 | 1 to 10 | 1 to 10
11 | Cc1cn2cc(-c3cc(=O)n4nc(N5CCNC6(CC6)C5)sc4n3)cc(F)c2n1 [Compound 209, 7-(8-fluoro-2-methylimidazo[1,2-α]pyridin-6-yl)-2-(4,7-diazaspiro[2.5]octan-7-yl)-5H-[1,3,4]thiadiazolo[3,2-α]pyrimidin-5-one] | 1 to 10 | 1 to 10 | 1 to 10 | 1 to 10 | 1 to 10
12 | Cc1cc(-c2nn3c(=O)cc(N4CCN(C)CC4)nc3s2)cc2cn(C)nc12 [Compound 210, 2-(2,7-dimethyl-2H-indazol-5-yl)-7-(4-methylpiperazin-1-yl)-5H-[1,3,4]thiadiazolo[3,2-α]pyrimidin-5-one] | 1 to 10 | 1 to 10 | 1 to 10 | 1 to 10 | 1 to 10
13 | Cc1cn2nc(-c3cc(=O)n4cc(N5CCNC6(CC6)C5)sc4n3)cc(C)c2n1 [Compound 211, 7-(2,8-dimethylimidazo[1,2-b]pyridazin-6-yl)-2-(4,7-diazaspiro[2.5]octan-7-yl)-5H-thiazolo[3,2-α]pyrimidin-5-one] | 1 to 10 | 1 to 10 | 1 to 10 | 1 to 10 | 0.1 to 1
14 | Cc1cn2nc(-c3cn4c(=O)cc(N5CCNC6(CC6)C5)nc4s3)cc(C)c2n1 [Compound 212, 2-(2,8-dimethylimidazo[1,2-b]pyridazin-6-yl)-7-(4,7-diazaspiro[2.5]octan-7-yl)-5H-thiazolo[3,2-α]pyrimidin-5-one] | 1 to 10 | 1 to 10 | 1 to 10 | 1 to 10 | 1 to 10
15 | Cc1cn2cc(-c3cn4c(=O)cc(N5CCNCC5)nc4s3)cc(F)c2n1 [Compound 213, 2-(8-fluoro-2-methylimidazo[1,2-α]pyridin-6-yl)-7-(piperazin-1-yl)-5H-thiazolo[3,2-α]pyrimidin-5-one] | > 10 | > 10 | > 10 | > 10 | 1 to 10
16 | Cc1cn2cc(-c3nn4c(=O)cc(N5CCNCC5)nc4s3)cc(F)c2n1 [Compound 214, 2-(8-fluoro-2-methylimidazo[1,2-α]pyridin-6-yl)-7-(piperazin-1-yl)-5H-[1,3,4]thiadiazolo[3,2-α]pyrimidin-5-one] | 1 to 10 | > 10 | > 10 | 1 to 10 | 0.1 to 1
17 | Cc1cn2cc(-c3nn4c(=O)cc(N(C)C5CC(C)(C)NC(C)(C)C5)nc4s3)cc(F)c2n1 [Compound 215, 2-(8-fluoro-2-methylimidazo[1,2-α]pyridin-6-yl)-7-(methyl(2,2,6,6-tetramethylpiperidin-4-yl)amino)-5H-[1,3,4]thiadiazolo[3,2-α]pyrimidin-5-one] | 1 to 10 | 1 to 10 | 1 to 10 | 1 to 10 | 0.1 to 1
18 | Cc1cn2cc(-c3nn4c(=O)cc(N5CCNC6(CC6)C5)nc4s3)cc(F)c2n1 [Compound 216, 2-(8-fluoro-2-methylimidazo[1,2-α]pyridin-6-yl)-7-(4,7-diazaspiro[2.5]octan-7-yl)-5H-[1,3,4]thiadiazolo[3,2-α]pyrimidin-5-one] | 1 to 10 | 1 to 10 | 1 to 10 | 1 to 10 | 1 to 10
19 | Cc1cn2cc(-c3nn4c(=O)cc(N5CCN(C)CC5)nc4s3)cc(F)c2n1 [Compound 217, 2-(8-fluoro-2-methylimidazo[1,2-α]pyridin-6-yl)-7-(4-methylpiperazin-1-yl)-5H-[1,3,4]thiadiazolo[3,2-α]pyrimidin-5-one] | 1 to 10 | 1 to 10 | 1 to 10 | 1 to 10 | 1 to 10
